Measured values taken from ChEMBL document CHEMBL1201861, “Genomics of Drug Sensitity in Cancer screening data, Wellcome Trust Sanger Institute”.

Experiments:
Caov-3 cell line = experiment: cells; format: functional, cell-based; details: Homo sapiens;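 note: cell growth inhibition read out by a viability assay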
Description: SANGER: Inhibition of human Caov-3 cell growth in a cell viability assay.

HMV-2 cell line = experiment: cells; format: functional, cell-based, Homo sapiens; details: Homo sapiens, HMV-2;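 note: growth inhibition of HMV-II cells, read out with a cell viability assay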
Description: SANGER: Inhibition of human HMV-II cell growth in a cell viability assay.

KU812 cell line = experiment: cells; format: functional, cell-based; details: Homo sapiens;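 note: growth inhibition of KU812 cells, read out with a cell viability assay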
Description: SANGER: Inhibition of human KU812 cell growth in a cell viability assay.

KYSE-150 cell line = experiment: cells; format: functional, cell-based, Homo sapiens; details: Homo sapiens, KYSE-150;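 note: growth inhibition of human KYSE-150 cells, read out with a cell viability assay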
Description: SANGER: Inhibition of human KYSE-150 cell growth in a cell viability assay.

KYSE-520 cell line = experiment: cells; format: functional, cell-based, Homo sapiens; details: Homo sapiens, KYSE-520;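 note: growth inhibition of human KYSE-520 cells, read out with a viability assay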
Description: SANGER: Inhibition of human KYSE-520 cell growth in a cell viability assay.

KYSE-70 cell line = experiment: cells; format: functional, cell-based, Homo sapiens; details: Homo sapiens, KYSE-70;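 note: cell viability assay read-out, with IC50 expressing suppression of KYSE-70 cell growth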
Description: SANGER: Inhibition of human KYSE-70 cell growth in a cell viability assay.

LCLC-103H cell line = experiment: cells; format: functional, cell-based, Homo sapiens; details: Homo sapiens, LCLC-103H
Description: SANGER: Inhibition of human LCLC-103H cell growth in a cell viability assay.

LXF-289 cell line = experiment: cells; format: functional, cell-based, Homo sapiens; details: Homo sapiens, LXF-289
Description: SANGER: Inhibition of human LXF-289 cell growth in a cell viability assay.

A253 cell line = experiment: cells; format: functional, cell-based, Homo sapiens; details: Homo sapiens, A253;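 note: growth inhibition of A253 cells, read out with a cell viability assay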
Description: SANGER: Inhibition of human A253 cell growth in a cell viability assay.

BC1 cell line = experiment: SANGER: Inhibition of human BC-1 cell growth in a cell viability assay.; format: functional, cell-based

IC50 (Caov-3 cell line): > 2.56 µM | IC50 (HMV-2 cell line): 0.183 µM | IC50 (KU812 cell line): > 2.56 µM | IC50 (KYSE-150 cell line): 2.25 µM | IC50 (KYSE-520 cell line): > 2.56 µM | IC50 (KYSE-70 cell line): > 2.56 µM | IC50 (LCLC-103H cell line): 0.788 µM | IC50 (LXF-289 cell line): > 2.56 µM | IC50 (A253 cell line): > 2.56 µM
Structure (SMILES): C[C@@]1(C(=O)Nc2ccc(F)nc2)CCCN1c1nc(Nc2cc(C3CC3)n[nH]2)c2cccn2n1 [BMS-754807]
IC50 (BC1 cell line): 0.587 µM
